From PubChem BioAssay AID1745844 (Carcinogenic Potency Database (CPDB), 2022)
Active and inactive are the calls of the source. No rule for the calls is given here.

System: rodent lifetime carcinogenesis bioassay, tumor incidence TD50
Assay: carcinogenic potency in animals, long-term in vivo studies, CPDB compilation (AID 1745844)

With `C=CCN(CCO)N=O` the TD50 (rat, strain Fischer 344, females, in drinking water, site: liver, lesion: hepatocellular carcinoma, dosed 50 weeks, study length 65 weeks) was 4.12 mg/kg/day and the TD50 (rat, strain Fischer 344, females, in drinking water, site: nasal cavity, lesion: several types, types named in the paper, dosed 50 weeks, study length 65 weeks) was 0.491 mg/kg/day.
For `C=CCNNCC=C`, the carcinogen call (mouse, strain Swiss albino, females, in drinking water, site: liver, lesion: angioma, dosed 83 weeks, study length 83 weeks) was “negative (inactive)”, the carcinogen call (mouse, strain Swiss albino, females, in drinking water, site: liver, lesion: angiosarcoma, dosed 83 weeks, study length 83 weeks) was “negative (inactive)” and the TD50 (mouse, strain Swiss albino, females, in drinking water, site: liver, lesion: hepatoma, dosed 83 weeks, study length 83 weeks) was 409 mg/kg/day (inactive). The TD50 (mouse, strain Swiss albino, females, in drinking water, site: lung, lesion: adenocarcinoma, dosed 83 weeks, study length 83 weeks) was 78.3 mg/kg/day, the TD50 (mouse, strain Swiss albino, females, in drinking water, site: lung, lesion: adenoma, dosed 83 weeks, study length 83 weeks) was 47.9 mg/kg/day and the TD50 (mouse, strain Swiss albino, females, in drinking water, site: lung, lesion: several types, types named in the paper, dosed 83 weeks, study length 83 weeks) was 33.8 mg/kg/day. For the same compound, the carcinogen call (mouse, strain Swiss albino, males, in drinking water, site: liver, lesion: angioma, dosed 82 weeks, study length 82 weeks) was “negative (inactive)”, the TD50 (mouse, strain Swiss albino, males, in drinking water, site: lung, lesion: adenocarcinoma, dosed 82 weeks, study length 82 weeks) was 60 mg/kg/day and the TD50 (mouse, strain Swiss albino, males, in drinking water, site: lung, lesion: adenoma, dosed 82 weeks, study length 82 weeks) was 35.4 mg/kg/day. It also gave a TD50 (mouse, strain Swiss albino, males, in drinking water, site: lung, lesion: several types, types named in the paper, dosed 82 weeks, study length 82 weeks) of 33.9 mg/kg/day.
Compound `CC1CN(N=O)CC(C)N1C` (configuration not stated) has a TD50 (hamster, strain Syrian Golden, males, by gavage, site: forestomach, lesion: papilloma, dosed 46 weeks, study length 69 weeks) of 1.32 mg/kg/day, a TD50 (hamster, strain Syrian Golden, males, by gavage, site: liver, lesion: angiosarcoma, dosed 46 weeks, study length 69 weeks) of 6.18 mg/kg/day and a TD50 (hamster, strain Syrian Golden, males, by gavage, site: lung, lesion: adenoma, dosed 46 weeks, study length 69 weeks) of 1.73 mg/kg/day. It also gave a TD50 (hamster, strain Syrian Golden, males, by gavage, site: lung, lesion: carcinoma, dosed 46 weeks, study length 69 weeks) of 3.2 mg/kg/day and a TD50 (rat, strain Fischer 344, females, in drinking water, site: nasal cavity, lesion: olfactory carcinoma, dosed 30 weeks, study length 85 weeks) of 0.151 mg/kg/day.
`O=NN1CC(=O)NC1=O` gave a TD50 (rat, strain MRC-Wistar, females, in drinking water, site: any site (literature study), lesion: several types, types named in the paper, dosed 52 weeks, study length 110 weeks) of 19.6 mg/kg/day, a TD50 (rat, strain MRC-Wistar, males, in drinking water, site: any site (literature study), lesion: several types, types named in the paper, dosed 52 weeks, study length 110 weeks) of 7.31 mg/kg/day and a TD50 (rat, strain MRC-Wistar, males, in drinking water, site: forestomach, lesion: squamous-cell papilloma, dosed 52 weeks, study length 110 weeks) of 27.8 mg/kg/day. It also gave a TD50 (rat, strain MRC-Wistar, males, in drinking water, site: pharynx, lesion: squamous-cell carcinoma, dosed 52 weeks, study length 110 weeks) of 43.8 mg/kg/day.
Compound `CCBr` has a TD50 (mouse, strain B6C3F1, females, inhaled, site: any site (literature study), lesion: several types, types named in the paper, dosed 103 weeks, study length 105 weeks) of 571 mg/kg/day, a TD50 (mouse, strain B6C3F1, females, inhaled, site: lung, lesion: alveolar/bronchiolar adenoma + alveolar/bronchiolar carcinoma, dosed 103 weeks, study length 105 weeks) of 5810 mg/kg/day and a TD50 (mouse, strain B6C3F1, females, inhaled, site: uterus, lesion: adenocarcinoma, NOS + adenoma, NOS + squamous-cell carcinoma, dosed 103 weeks, study length 105 weeks) of 535 mg/kg/day. It also gave a TD50 (mouse, strain B6C3F1, females, inhaled, site: uterus, lesion: adenocarcinoma, NOS + adenoma, NOS, dosed 103 weeks, study length 105 weeks) of 596 mg/kg/day, a TD50 (mouse, strain B6C3F1, females, inhaled, site: uterus, lesion: adenocarcinoma, NOS + squamous-cell carcinoma, dosed 103 weeks, study length 105 weeks) of 681 mg/kg/day and a TD50 (mouse, strain B6C3F1, females, inhaled, site: uterus, lesion: adenocarcinoma, NOS, dosed 103 weeks, study length 105 weeks) of 822 mg/kg/day. For the same compound, the TD50 (mouse, strain B6C3F1, females, inhaled, site: uterus, lesion: adenoma, NOS, dosed 103 weeks, study length 105 weeks) was 2610 mg/kg/day, the TD50 (mouse, strain B6C3F1, females, inhaled, site: uterus, lesion: squamous-cell carcinoma, dosed 103 weeks, study length 105 weeks) was 4440 mg/kg/day and the TD50 (mouse, strain B6C3F1, males, inhaled, site: any site (literature study), lesion: several types, types named in the paper, dosed 104 weeks, study length 105 weeks) was 1630 mg/kg/day. For the same compound, the TD50 (mouse, strain B6C3F1, males, inhaled, site: liver, lesion: hepatocellular adenoma + hepatocellular carcinoma + neoplastic nodule, dosed 104 weeks, study length 105 weeks) was 3670 mg/kg/day, the TD50 (mouse, strain B6C3F1, males, inhaled, site: lung, lesion: alveolar/bronchiolar adenoma + alveolar/bronchiolar carcinoma, dosed 104 weeks, study length 105 weeks) was 1100 mg/kg/day and the TD50 (mouse, strain B6C3F1, males, inhaled, site: lung, lesion: alveolar/bronchiolar carcinoma, dosed 104 weeks, study length 105 weeks) was 2390 mg/kg/day. The TD50 (rat, strain Fischer 344, females, inhaled, site: brain, lesion: glioma, NOS, dosed 104 weeks, study length 106 weeks) was 1020 mg/kg/day, the TD50 (rat, strain Fischer 344, females, inhaled, site: liver, lesion: hepatocellular adenoma + hepatocellular carcinoma + neoplastic nodule, dosed 104 weeks, study length 106 weeks) was 670 mg/kg/day and the TD50 (rat, strain Fischer 344, females, inhaled, site: lung, lesion: alveolar/bronchiolar adenoma, dosed 104 weeks, study length 106 weeks) was 1280 mg/kg/day. For the same compound, the TD50 (rat, strain Fischer 344, males, inhaled, site: adrenal medulla + brain + lung, lesion: pheochromocytoma + pheochromocytoma, malignant + astrocytoma + granulosa-cell tumor, NOS + glioma, NOS + oligodendroglioma + alveola, dosed 104 weeks, study length 106 weeks) was 151 mg/kg/day, the TD50 (rat, strain Fischer 344, males, inhaled, site: adrenal medulla, lesion: pheochromocytoma + pheochromocytoma, malignant, dosed 104 weeks, study length 106 weeks) was 149 mg/kg/day and the carcinogen call (rat, strain Fischer 344, males, inhaled, site: brain, lesion: astrocytoma + glioma, NOS + oligodendroglioma, dosed 104 weeks, study length 106 weeks) was “p”. For the same compound, the TD50 (rat, strain Fischer 344, males, inhaled, site: brain, lesion: granulosa-cell tumor, NOS, dosed 104 weeks, study length 106 weeks) was 80700 mg/kg/day, the TD50 (rat, strain Fischer 344, males, inhaled, site: liver, lesion: hepatocellular adenoma + hepatocellular carcinoma + neoplastic nodule, dosed 104 weeks, study length 106 weeks) was 2280 mg/kg/day and the TD50 (rat, strain Fischer 344, males, inhaled, site: liver, lesion: neoplastic nodule, dosed 104 weeks, study length 106 weeks) was 1140 mg/kg/day. For the same compound, the TD50 (rat, strain Fischer 344, males, inhaled, site: lung, lesion: alveolar/bronchiolar adenoma + alveolar/bronchiolar carcinoma, dosed 104 weeks, study length 106 weeks) was 582 mg/kg/day.
In the case of `O=C(O)c1cccnc1`, the carcinogen call (mouse, strain Swiss albino, females, in drinking water, site: liver, lesion: several types, types named in the paper, dosed 139 weeks, study length 139 weeks) is reported as “negative (inactive)”, the TD50 (mouse, strain Swiss albino, females, in drinking water, site: lung, lesion: one or several types, types not named, dosed 139 weeks, study length 139 weeks) is reported as 17000 mg/kg/day (inactive) and the carcinogen call (mouse, strain Swiss albino, males, in drinking water, site: liver, lesion: several types, types named in the paper, dosed 119 weeks, study length 119 weeks) is reported as “negative (inactive)”. The carcinogen call (mouse, strain Swiss albino, males, in drinking water, site: lung, lesion: one or several types, types not named, dosed 119 weeks, study length 119 weeks) was “negative (inactive)”.
With `Oc1ccc(Cl)cc1Cl` the carcinogen call (mouse, strain B6C3F1, females, in feed, site: any site (literature study), lesion: several types, types named in the paper, dosed 103 weeks, study length 104 weeks) was “negative (inactive)”, the TD50 (mouse, strain B6C3F1, males, in feed, site: forestomach, lesion: squamous-cell carcinoma + squamous-cell papilloma, dosed 103 weeks, study length 104 weeks) was 12400 mg/kg/day (inactive) and the TD50 (mouse, strain B6C3F1, males, in feed, site: liver, lesion: hepatocellular adenoma + hepatocellular carcinoma + neoplastic nodule, dosed 103 weeks, study length 104 weeks) was 458000 mg/kg/day. The TD50 (mouse, strain B6C3F1, males, in feed, site: lung, lesion: alveolar/bronchiolar adenoma + alveolar/bronchiolar carcinoma, dosed 103 weeks, study length 104 weeks) was 13300 mg/kg/day, the carcinogen call (rat, strain Fischer 344, females, in feed, site: any site (literature study), lesion: several types, types named in the paper, dosed 103 weeks, study length 104 weeks) was “negative (inactive)” and the carcinogen call (rat, strain Fischer 344, males, in feed, site: any site (literature study), lesion: several types, types named in the paper, dosed 103 weeks, study length 104 weeks) was “negative (inactive)”.
In the case of `CC(=O)Nc1ccc(CC(=O)O)cc1`, the carcinogen call (mouse, strain B6C3F1, females, in feed, site: liver, lesion: hepatocellular adenoma, dosed 78 weeks, study length 78 weeks) is reported as “negative (inactive)”, the carcinogen call (mouse, strain B6C3F1, females, in feed, site: liver, lesion: hepatocellular carcinoma, dosed 78 weeks, study length 78 weeks) is reported as “negative (inactive)” and the carcinogen call (mouse, strain B6C3F1, females, in feed, site: lung, lesion: several types, types named in the paper, dosed 78 weeks, study length 78 weeks) is reported as “negative (inactive)”. The carcinogen call (mouse, strain B6C3F1, males, in feed, site: liver, lesion: hepatocellular adenoma, dosed 78 weeks, study length 78 weeks) was “negative (inactive)”, the TD50 (mouse, strain B6C3F1, males, in feed, site: lung, lesion: alveolar/bronchiolar adenoma, dosed 78 weeks, study length 78 weeks) was 27700 mg/kg/day (inactive) and the TD50 (mouse, strain B6C3F1, males, in feed, site: lung, lesion: alveolar/bronchiolar carcinoma, dosed 78 weeks, study length 78 weeks) was 56100 mg/kg/day (inactive). The carcinogen call (rat, strain Fischer 344, females, in feed, site: liver, lesion: several types, types named in the paper, dosed 104 weeks, study length 104 weeks) was “negative (inactive)”, the carcinogen call (rat, strain Fischer 344, males, in feed, site: liver, lesion: hepatocellular adenoma, dosed 104 weeks, study length 104 weeks) was “negative (inactive)” and the carcinogen call (rat, strain Fischer 344, males, in feed, site: liver, lesion: hepatocellular carcinoma, dosed 104 weeks, study length 104 weeks) was “negative (inactive)”.
In the case of `O=C[C@H](NC(=O)N(CCCl)N=O)[C@@H](O)[C@H](O)[C@H](O)CO`, the TD50 (rat, strain Sprague-Dawley, females, i.p., site: any site (literature study), lesion: malignant tumor, dosed 88 weeks, study length 114 weeks) is reported as 0.108 mg/kg/day, the TD50 (rat, strain Sprague-Dawley, females, i.p., site: peritoneal cavity, lesion: several types, types named in the paper, dosed 88 weeks, study length 114 weeks) is reported as 0.0844 mg/kg/day and the TD50 (rat, strain Sprague-Dawley, males, i.p., site: any site (literature study), lesion: malignant tumor, dosed 77 weeks, study length 100 weeks) is reported as 0.0521 mg/kg/day. The TD50 (rat, strain Sprague-Dawley, males, i.p., site: peritoneal cavity, lesion: several types, types named in the paper, dosed 77 weeks, study length 100 weeks) was 0.0241 mg/kg/day.
`ClCOCCOCCl` was tested, and the TD50 (mouse, strain Ha/ICR, females, i.p., site: abdomen, lesion: several types, types named in the paper, dosed 78 weeks, study length 78 weeks) was 4.62 mg/kg/day.
